Experimental data from patent US8372967B2, “Compounds and methods for modulating expression of GCCR” (Isis Pharmaceuticals, Inc., priority 2006, dated 2013).

Columns and labels:
Type in all cases: in vivo, mouse
[1] = Triglyceride, cholesterol and glucose levels, pre-bleed and post-bleed, GCGR study (Table 34); parameters: Triglyceride (TRIG) Pre-Bleed / Triglyceride (TRIG) Post-Bleed / Cholesterol (CHOL) Pre-Bleed / Cholesterol (CHOL) Post-Bleed / Glucose Pre-Bleed / Glucose Post-Bleed: unit not given here
Experimental: (§1) Eight-week old male C57/BL6 mice (Jackson Laboratory, Bar Harbor, Me.) were administered a single dose of GCGR oligonucleotide by intraperitoneal injection at a concentration of […]. Each dose group consisted of four animals. Shown in Table 31 are the sequences, motifs and conjugates of the GCGR antisense compounds used in this study. Bolded residues indicate 2′-O-methoxyethyl (2′-MOE) moieties. All compounds comprise phosphorothioate internucleoside linkages throughout and each cytosine is replaced with 5-methylcytosine. ISIS 386626, ISIS 386627 and ISIS 386628 further comprise a C16 conjugate group attached to the 2′-O position of the sugar via a diamide linkage (2′-OCH2C(═O)N(H)(CH2)4N(H)C(═O)—(CH2)15CH3). GCGR antisense compounds target published GCGR sequences, including Genbank® Accession No. BC031885.1 (SEQ ID NO: 7).
(§2) Mice were sacrificed 48 hours following injection to determine serum transaminase levels (Table 32); liver, white adipose tissue (WAT), spleen and kidney weight (Table 33); cholesterol, triglyceride and glucose levels (Table 34); GCGR mRNA levels (Tables 35-41); and full-length and total oligonucleotide concentration in liver and kidney (Table 42). Endpoints were assessed using methods described herein and well known to those of ordinary skill in the art. Data is included from a pre-treatment bleed (Pre-Bleed) and post-treatment bleed (Post-Bleed).

GCGR mRNA = GCGR mRNA levels in liver, C57/BL6 mice, single i.p. dose (Tables 35-41)
Experimental: Prior to quantitative PCR analysis, primer-probe sets specific to the target gene being measured were evaluated for their ability to be “multiplexed” with a GAPDH amplification reaction. After isolation the RNA is subjected to sequential reverse transcriptase (RT) reaction and real-time PCR, both of which are performed in the same well. RT and PCR reagents were obtained from Invitrogen Life Technologies (Carlsbad, Calif.). […] The RT reaction was carried out by incubation for 30 minutes at 48° C. Following a 10 minute incubation at 95° C. to activate the PLATIN 9M® Taq, 40 cycles of a two-step PCR protocol were carried out: 95° C. for 15 seconds (denaturation) followed by 60° C. for 1.5 minutes (annealing/extension).
170 μL of RiboGreen® working reagent (RiboGreen® reagent diluted 1:350 in 10 mM Tris-HCl, 1 mM EDTA, pH 7.5) was pipetted into a 96-well plate containing 30 μL purified cellular RNA. The plate was read in a CytoFluor® 4000 (PE Applied Biosystems) with excitation at 485 nm and emission at 530 nm.
as §1, §2
To determine whether the phenotypic changes shown above correlated with a decrease in GCGR mRNA, treated animals were evaluated for levels of target mRNA in liver by real time PCR according to methods described herein. Tables 35 to 41 show results from direct comparisons of the antisense compounds targeting GCGR nucleic acid for their effect on target expression. Results are expressed as percent of saline control.

[2] = Organ weights: liver, WAT, spleen, kidney, GCGR study (Table 33); conditions: 48 h
Experimental: as §1, §2

[3] = ALT & AST levels and toxic effects, GCGR study (Table 32); conditions: C57/BL6 mice, pre-treatment bleed
Experimental: as §1, §2

[4] = 6.25 mg/kg group, pre-treatment bleed
[5] = 6.25 mg/kg single i.p., post-treatment bleed
[6] = 12.5 mg/kg group, pre-treatment bleed
[7] = 12.5 mg/kg single i.p., post-treatment bleed
[8] = 25 mg/kg group, pre-treatment bleed
[9] = 25 mg/kg single i.p., post-treatment bleed
[10] = 50 mg/kg group, pre-treatment bleed
[11] = 50 mg/kg single i.p., post-treatment bleed

Substance: 386626 (antisense GCTTCTCCATCATA; chemistry not fully specified) [compound 386626]
- Cholesterol (CHOL) Pre-Bleed [1, 4]: 85
- Triglyceride (TRIG) Pre-Bleed [1, 4]: 86
- Cholesterol (CHOL) Post-Bleed [1, 5]: 90
- Triglyceride (TRIG) Post-Bleed [1, 5]: 162
- Cholesterol (CHOL) Pre-Bleed [1, 6]: 82
- Triglyceride (TRIG) Pre-Bleed [1, 6]: 100
- Cholesterol (CHOL) Post-Bleed [1, 7]: 76
- Triglyceride (TRIG) Post-Bleed [1, 7]: 148
- Cholesterol (CHOL) Pre-Bleed [1, 8]: 87
- Triglyceride (TRIG) Pre-Bleed [1, 8]: 100
- Cholesterol (CHOL) Post-Bleed [1, 9]: 72
- Triglyceride (TRIG) Post-Bleed [1, 9]: 187
- Cholesterol (CHOL) Pre-Bleed [1, 10]: 79
- Triglyceride (TRIG) Pre-Bleed [1, 10]: 87
- Cholesterol (CHOL) Post-Bleed [1, 11]: 57
- Triglyceride (TRIG) Post-Bleed [1, 11]: 163
- GCGR mRNA levels (GCGR mRNA; 6.25 mg/kg, Table 35 comparison ISIS 148364 & ISIS 386626): 7% of saline control
- GCGR mRNA levels (GCGR mRNA; 12.5 mg/kg, Table 35 comparison ISIS 148364 & ISIS 386626): 3% of saline control
- GCGR mRNA levels (GCGR mRNA; 25 mg/kg, Table 35 comparison ISIS 148364 & ISIS 386626): 8% of saline control
- GCGR mRNA levels (GCGR mRNA; 50 mg/kg, Table 35 comparison ISIS 148364 & ISIS 386626): 0% of saline control
- Organ Weights: Kidney ([2]; 6.25 mg/kg single i.p.): 100 % saline control
- Organ Weights: Liver ([2]; 6.25 mg/kg single i.p.): 100 % saline control
- Organ Weights: Spleen ([2]; 6.25 mg/kg single i.p.): 95 % saline control
- Organ Weights: WAT ([2]; 6.25 mg/kg single i.p.): 90 % saline control
- Organ Weights: Kidney ([2]; 12.5 mg/kg single i.p.): 97 % saline control
- Organ Weights: Liver ([2]; 12.5 mg/kg single i.p.): 96 % saline control
- Organ Weights: Spleen ([2]; 12.5 mg/kg single i.p.): 114 % saline control
- Organ Weights: WAT ([2]; 12.5 mg/kg single i.p.): 73 % saline control
- Organ Weights: Kidney ([2]; 25 mg/kg single i.p.): 103 % saline control
- Organ Weights: Liver ([2]; 25 mg/kg single i.p.): 109 % saline control
- Organ Weights: Spleen ([2]; 25 mg/kg single i.p.): 120 % saline control
- Organ Weights: WAT ([2]; 25 mg/kg single i.p.): 97 % saline control
- Organ Weights: Kidney ([2]; 50 mg/kg single i.p.): 104 % saline control
- Organ Weights: Liver ([2]; 50 mg/kg single i.p.): 112 % saline control
- Organ Weights: Spleen ([2]; 50 mg/kg single i.p.): 130 % saline control
- Organ Weights: WAT ([2]; 50 mg/kg single i.p.): 77 % saline control
- ALT Pre-Bleed ([3]; dose group 6.25 mg/kg): 26 IU/L
- AST Pre-Bleed ([3]; dose group 6.25 mg/kg): 46 IU/L
- ALT Pre-Bleed ([3]; dose group 12.5 mg/kg): 28 IU/L
- AST Pre-Bleed ([3]; dose group 12.5 mg/kg): 44 IU/L
- ALT Pre-Bleed ([3]; dose group 25 mg/kg): 30 IU/L
- AST Pre-Bleed ([3]; dose group 25 mg/kg): 44 IU/L
- ALT Pre-Bleed ([3]; dose group 50 mg/kg): 28 IU/L
- AST Pre-Bleed ([3]; dose group 50 mg/kg): 48 IU/L

Substance: 386628 (antisense TGTCTTGCTGCTTT; chemistry not fully specified) [compound 386628]
- Cholesterol (CHOL) Pre-Bleed [1, 4]: 83
- Triglyceride (TRIG) Pre-Bleed [1, 4]: 117
- Cholesterol (CHOL) Post-Bleed [1, 5]: 85
- Triglyceride (TRIG) Post-Bleed [1, 5]: 121
- Cholesterol (CHOL) Pre-Bleed [1, 6]: 90
- Triglyceride (TRIG) Pre-Bleed [1, 6]: 90
- Cholesterol (CHOL) Post-Bleed [1, 7]: 94
- Glucose Post-Bleed [1, 7]: 240
- Triglyceride (TRIG) Post-Bleed [1, 7]: 123
- Cholesterol (CHOL) Pre-Bleed [1, 8]: 84
- Glucose Pre-Bleed [1, 8]: 210
- Triglyceride (TRIG) Pre-Bleed [1, 8]: 102
- Cholesterol (CHOL) Post-Bleed [1, 9]: 85
- Triglyceride (TRIG) Post-Bleed [1, 9]: 129
- Cholesterol (CHOL) Pre-Bleed [1, 10]: 88
- Triglyceride (TRIG) Pre-Bleed [1, 10]: 102
- Cholesterol (CHOL) Post-Bleed [1, 11]: 95
- Triglyceride (TRIG) Post-Bleed [1, 11]: 98
- GCGR mRNA levels (GCGR mRNA; 6.25 mg/kg, Table 38 comparison ISIS 148364 & ISIS 386628): 77% of saline control
- GCGR mRNA levels (GCGR mRNA; 6.25 mg/kg, Table 41 comparison ISIS 386628 & ISIS 386594): 97% of saline control
- GCGR mRNA levels (GCGR mRNA; 12.5 mg/kg, Table 38 comparison ISIS 148364 & ISIS 386628): 53% of saline control
- GCGR mRNA levels (GCGR mRNA; 12.5 mg/kg, Table 41 comparison ISIS 386628 & ISIS 386594): 38% of saline control
- GCGR mRNA levels (GCGR mRNA; 25 mg/kg, Table 38 comparison ISIS 148364 & ISIS 386628): 18% of saline control
- GCGR mRNA levels (GCGR mRNA; 25 mg/kg, Table 41 comparison ISIS 386628 & ISIS 386594): 13% of saline control
- GCGR mRNA levels (GCGR mRNA; 50 mg/kg, Table 38 comparison ISIS 148364 & ISIS 386628): 2% of saline control
- GCGR mRNA levels (GCGR mRNA; 50 mg/kg, Table 41 comparison ISIS 386628 & ISIS 386594): 4% of saline control
- Organ Weights: Kidney ([2]; 6.25 mg/kg single i.p.): 102 % saline control
- Organ Weights: Liver ([2]; 6.25 mg/kg single i.p.): 98 % saline control
- Organ Weights: Spleen ([2]; 6.25 mg/kg single i.p.): 151 % saline control
- Organ Weights: WAT ([2]; 6.25 mg/kg single i.p.): 106 % saline control
- Organ Weights: Kidney ([2]; 12.5 mg/kg single i.p.): 99 % saline control
- Organ Weights: Liver ([2]; 12.5 mg/kg single i.p.): 101 % saline control
- Organ Weights: Spleen ([2]; 12.5 mg/kg single i.p.): 114 % saline control
- Organ Weights: WAT ([2]; 12.5 mg/kg single i.p.): 111 % saline control
- Organ Weights: Kidney ([2]; 25 mg/kg single i.p.): 109 % saline control
- Organ Weights: Liver ([2]; 25 mg/kg single i.p.): 102 % saline control
- Organ Weights: Spleen ([2]; 25 mg/kg single i.p.): 113 % saline control
- Organ Weights: WAT ([2]; 25 mg/kg single i.p.): 97 % saline control
- Organ Weights: Kidney ([2]; 50 mg/kg single i.p.): 99 % saline control
- Organ Weights: Liver ([2]; 50 mg/kg single i.p.): 104 % saline control
- Organ Weights: Spleen ([2]; 50 mg/kg single i.p.): 126 % saline control
- Organ Weights: WAT ([2]; 50 mg/kg single i.p.): 100 % saline control
- ALT Pre-Bleed ([3]; dose group 6.25 mg/kg): 22 IU/L
- AST Pre-Bleed ([3]; dose group 6.25 mg/kg): 40 IU/L
- ALT Pre-Bleed ([3]; dose group 12.5 mg/kg): 28 IU/L
- AST Pre-Bleed ([3]; dose group 12.5 mg/kg): 42 IU/L
- ALT Pre-Bleed ([3]; dose group 25 mg/kg): 24 IU/L
- AST Pre-Bleed ([3]; dose group 25 mg/kg): 40 IU/L
- ALT Pre-Bleed ([3]; dose group 50 mg/kg): 28 IU/L
- AST Pre-Bleed ([3]; dose group 50 mg/kg): 44 IU/L

Substance: ISIS 386626: GCGR short antisense compound with C16 conjugate group at 2′-O via diamide linkage (GCTTCTCCATCATA; chemistry not fully specified)
- Glucose levels (post-bleed) ([1]; C57/BL6 mice, 48 hours after single i.p. dose): decreased in a dose-dependent manner
- GCGR mRNA expression (GCGR mRNA; single i.p. dose 6.25, 12.5, 25 or 50 mg): greatest decrease in target mRNA
